What was measured:
[1] = system: HCV replicon; assay: Resistance selection in HCV replicon system; assay type: cell-based
[2] = system: EV71; assay: EV71 antiviral assay; assay type: cell-based; details: Enterovirus A
[3] = system: HRV; assay: Rhinovirus antiviral assay; assay type: cell-based; details: Human rhinovirus sp.
[4] = system: HCV genotype 2a; assay: microbe, parasite or virus in culture; assay type: cell-based; details: Hepatitis C virus, Huh7.5, read-out: HCV2a EC50
[5] = system: Norovirus; assay: Norovirus antiviral assay; assay type: cell-based
[6] = biological target: PI3KC2B (Homo sapiens, UniProt O00750); assay: PI3KC2B kinase assay; assay type: biochemical
Experimental: (§1) PI-kinase assay: Compounds are tested in C.1.1. PI kinase assays as described by Shokat et al., “A membrane capture assay for lipid kinase activity.” Nat. Protoc. 2007; 2(10):2459-66.

[7] = biological target: T1, PI3K p110g (Homo sapiens, UniProt P48736); assay: PI3K p110g kinase assay; assay type: biochemical
T1 construct: purchased Millipore
Experimental: (§2) In the assays described here, p110α-p85 complex and p110γ were acquired from Millipore. Assays were performed with Lα-phosphatidylinositol (Avanti) as described in Knight et al. Nat Protoc. 2007; 2 (10):2459-66. Inhibitor series were prepared 10% DMSO as 5× stocks for the assay. Assays of HsVps34 were performed as described in Knight et al, except that the final assay buffer composition used was changed to 20 mM HEPES 7.5, 100 mM NaCl, 3 mM MgCl, 1 mg/mL PI and 44 nM hvps34 was used in the assay. […] COS-7 cells were cultured in 10 cm dishes and transfected at 70% confluence with 10 μg of plasmid DNA (HA-tagged bovine PI4KIIIβ, HA-tagged human PI4KIIIα) using Lipofectamine 2000 and 5 ml Opti-MEM following the manufacturer's instructions. After 5 hours the transfection medium was replaced with 10 ml complete DMEM. 36 hrs post transfection, cells were washed once with 5 ml PBS (pH 7.4) and lysed in 1 ml of lysis buffer (1) on ice. Lysates were collected by scraping and after 15 min they were centrifuged at 13,000 rpm for 10 min. To the lysates was added 200 μl of protein G Sepharose 4 fast flow beads that were prewashed with PBS and lysis buffer and 2 μg of anti-HA antibody. The tubes were then incubated overnight at 4 degrees C. in a tube rotator. The Sepharose beads in the lysate were washed twice with 150 mM NaCl in RIPA buffer, twice with RIPA buffer and once with kinase buffer (50 mM Tris/HCl, pH 7.5, 20 mM MgCl2, 1 mM EGTA, 1 mM PtdIns, 0.4% Triton X-100, 0.5 mg/mL BSA) and finally the beads were resuspended in 200 μL kinase buffer. Kinase reactions were run in a mixture of 45 μL of PI buffer (1 mM PI in kinase buffer), 10 μL of immunoprecipitated beads, 2 µL of inhibitors (dissolved and diluted in DMSO) or DMSO and 5 μL of [γ-^32P]-ATP (1 mM and 2 μCi/tube). The immunoprecipitates in PI buffer were pre-incubated with the drugs for 20 min prior the initiation of kinase reaction by adding ATP and the reactions were carried out for 30 min in 15 ml polypropolyne tubes. Reactions were terminated by addition of 3 ml of CHCl3:CH3OH:HCl (200:100:0.75) followed by 0.6 ml of 0.6N HCl to induce phase separation. The mixtures were vortexed, centrifuged at 2000 rpm for 2 min and the upper phase was discarded. To the lower phase was added 1.5 ml of CHCl3:CH3OH:0.6N HCl (3:48:47) and the mixture vortexed and centrifuged at 2000 rpm for 2 min. The lower phase was then transferred to counting vials and evaporated. Samples were counted in a scintillation beta counter after adding 5 ml of Instafluor (Perkin-Elmer).
as §1

[8] = system: Ebola; assay: microbe, parasite or virus in culture; assay type: cell-based; details: Zaire ebolavirus, read-out: Ebola EC50
[9] = biological target: T2, PI4KIIIA (Homo sapiens, UniProt P42356); assay: PI4KIIIA kinase assay; assay type: biochemical
T2 construct: made in house; host or cells: COS-7 cells, transient transfection, anti-HA immunoprecipitate on protein G Sepharose beads
Experimental: as §2, with “Reactions were terminated by addition of 3 ml of CHCl3:CH3OH:HCl (200:100:0.75) followed by 0.6 ml of 0.6N HCl to induce phase separation. The mixtures were vortexed, centrifuged at 2000 rpm for 2 min and the upper phase was discarded. To the lower phase was added 1.5 ml of CHCl3:CH3OH:0.6N HCl (3:48:47) and the mixture vortexed and centrifuged at 2000 rpm for 2 min. The lower phase was then transferred to counting vials and evaporated.” left out, “(Perkin-Elmer). […]” for “(Perkin-Elmer).”

[10] = biological target: T3, PI3KC2G (Homo sapiens, UniProt O75747); assay: PI3KC2G kinase assay; assay type: biochemical
T3 sequence (O75747 1-1486): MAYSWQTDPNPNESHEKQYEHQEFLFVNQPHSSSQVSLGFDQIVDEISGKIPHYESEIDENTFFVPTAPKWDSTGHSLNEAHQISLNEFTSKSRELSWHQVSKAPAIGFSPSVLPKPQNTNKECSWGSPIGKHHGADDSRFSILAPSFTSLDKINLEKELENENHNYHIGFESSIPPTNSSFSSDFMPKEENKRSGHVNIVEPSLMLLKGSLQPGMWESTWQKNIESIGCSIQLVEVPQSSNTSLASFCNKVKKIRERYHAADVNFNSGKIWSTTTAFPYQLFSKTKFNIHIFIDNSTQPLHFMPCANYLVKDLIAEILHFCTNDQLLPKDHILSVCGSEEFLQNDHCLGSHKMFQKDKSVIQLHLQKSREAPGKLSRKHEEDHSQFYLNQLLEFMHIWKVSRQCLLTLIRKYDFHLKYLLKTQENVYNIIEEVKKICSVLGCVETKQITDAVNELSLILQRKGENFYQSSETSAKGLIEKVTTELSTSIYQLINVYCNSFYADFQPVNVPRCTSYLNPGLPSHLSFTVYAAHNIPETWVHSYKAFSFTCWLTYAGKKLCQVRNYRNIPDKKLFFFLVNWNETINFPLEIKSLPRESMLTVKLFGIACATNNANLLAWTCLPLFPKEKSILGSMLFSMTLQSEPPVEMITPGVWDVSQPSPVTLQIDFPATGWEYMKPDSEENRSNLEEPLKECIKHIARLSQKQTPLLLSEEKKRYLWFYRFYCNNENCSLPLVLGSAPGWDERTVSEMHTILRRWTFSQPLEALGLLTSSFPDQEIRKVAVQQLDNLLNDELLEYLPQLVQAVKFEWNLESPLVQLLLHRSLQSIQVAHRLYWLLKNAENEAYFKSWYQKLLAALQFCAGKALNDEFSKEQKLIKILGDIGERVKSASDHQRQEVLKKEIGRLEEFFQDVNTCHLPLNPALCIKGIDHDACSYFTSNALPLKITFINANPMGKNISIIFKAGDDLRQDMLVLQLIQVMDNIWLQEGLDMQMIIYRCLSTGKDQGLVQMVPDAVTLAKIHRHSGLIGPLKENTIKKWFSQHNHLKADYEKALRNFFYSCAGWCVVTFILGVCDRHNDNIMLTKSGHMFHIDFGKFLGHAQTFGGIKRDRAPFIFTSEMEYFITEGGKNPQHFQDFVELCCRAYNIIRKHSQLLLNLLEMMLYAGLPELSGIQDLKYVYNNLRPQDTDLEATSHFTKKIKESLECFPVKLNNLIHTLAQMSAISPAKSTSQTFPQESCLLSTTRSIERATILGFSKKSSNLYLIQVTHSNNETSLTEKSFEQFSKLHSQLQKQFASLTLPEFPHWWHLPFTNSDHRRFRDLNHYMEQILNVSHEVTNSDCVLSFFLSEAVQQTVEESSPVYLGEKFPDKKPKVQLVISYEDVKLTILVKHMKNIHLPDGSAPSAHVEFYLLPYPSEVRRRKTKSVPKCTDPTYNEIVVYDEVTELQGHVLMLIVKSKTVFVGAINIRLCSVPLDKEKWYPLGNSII

[11] = biological target: T4, PI4KIIIB (Bos taurus, UniProt O02810); assay: PI4KIIIB kinase assay; assay type: biochemical, bovine
T4 construct: made in house; host or cells: COS-7 cells, transient transfection, anti-HA immunoprecipitate on protein G Sepharose beads
Experimental: as §2, with “2007; 2 (10):2459-66.” left out, “for” for “for the assay. Assays of HsVps34 were performed as described in Knight et al, except that the final assay buffer composition used was changed to 20 mM HEPES 7.5, 100 mM NaCl, 3 mM MgCl, 1 mg/mL PI and 44 nM hvps34 was used in”, “Lysates were collected by scraping and after 15 min they were centrifuged at 13,000 rpm for 10 min.” left out, “The Sepharose beads in the lysate were washed twice with 150 mM NaCl in RIPA buffer, twice with RIPA buffer and once with kinase buffer (50 mM Tris/HCl, pH 7.5, 20 mM MgCl2, 1 mM EGTA, 1 mM PtdIns, 0.4% Triton X-100, 0.5 mg/mL BSA) and finally the beads were resuspended in 200 μL kinase buffer.” left out
PI-kinase assay: Compounds are tested in C.1.1. PI kinase assays as described by Shokat et al., “A membrane capture assay for lipid kinase activity.” Nat. Protoc.

T1 sequence (P48736 whole entry): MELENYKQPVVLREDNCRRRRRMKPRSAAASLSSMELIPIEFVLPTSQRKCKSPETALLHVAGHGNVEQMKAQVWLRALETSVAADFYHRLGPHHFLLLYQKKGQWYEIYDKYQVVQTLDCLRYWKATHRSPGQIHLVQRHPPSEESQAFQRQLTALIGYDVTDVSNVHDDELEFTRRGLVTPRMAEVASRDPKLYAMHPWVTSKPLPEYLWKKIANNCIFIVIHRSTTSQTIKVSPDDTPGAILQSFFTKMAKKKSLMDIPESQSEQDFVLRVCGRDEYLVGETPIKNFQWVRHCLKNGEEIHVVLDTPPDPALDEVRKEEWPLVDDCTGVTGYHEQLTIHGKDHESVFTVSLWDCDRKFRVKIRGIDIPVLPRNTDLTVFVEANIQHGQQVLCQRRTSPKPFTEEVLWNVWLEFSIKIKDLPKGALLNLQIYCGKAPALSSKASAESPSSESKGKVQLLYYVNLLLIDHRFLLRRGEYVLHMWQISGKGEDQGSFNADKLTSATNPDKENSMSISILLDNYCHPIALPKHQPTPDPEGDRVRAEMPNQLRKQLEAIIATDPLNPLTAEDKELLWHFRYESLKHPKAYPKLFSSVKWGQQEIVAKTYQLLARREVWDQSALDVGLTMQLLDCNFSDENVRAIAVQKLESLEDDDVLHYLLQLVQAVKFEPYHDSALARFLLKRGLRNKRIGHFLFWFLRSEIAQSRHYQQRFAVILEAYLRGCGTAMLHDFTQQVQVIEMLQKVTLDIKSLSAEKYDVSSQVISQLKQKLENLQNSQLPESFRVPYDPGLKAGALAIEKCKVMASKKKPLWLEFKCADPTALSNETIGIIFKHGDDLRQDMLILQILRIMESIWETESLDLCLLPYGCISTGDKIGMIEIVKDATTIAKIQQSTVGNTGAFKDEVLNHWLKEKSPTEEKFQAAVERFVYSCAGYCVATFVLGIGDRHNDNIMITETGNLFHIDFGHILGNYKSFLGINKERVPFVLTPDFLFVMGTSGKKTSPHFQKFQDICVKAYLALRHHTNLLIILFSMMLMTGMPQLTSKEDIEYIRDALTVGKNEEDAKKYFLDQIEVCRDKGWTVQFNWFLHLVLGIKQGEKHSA
Chain of PI3KC2B (O00750 whole entry): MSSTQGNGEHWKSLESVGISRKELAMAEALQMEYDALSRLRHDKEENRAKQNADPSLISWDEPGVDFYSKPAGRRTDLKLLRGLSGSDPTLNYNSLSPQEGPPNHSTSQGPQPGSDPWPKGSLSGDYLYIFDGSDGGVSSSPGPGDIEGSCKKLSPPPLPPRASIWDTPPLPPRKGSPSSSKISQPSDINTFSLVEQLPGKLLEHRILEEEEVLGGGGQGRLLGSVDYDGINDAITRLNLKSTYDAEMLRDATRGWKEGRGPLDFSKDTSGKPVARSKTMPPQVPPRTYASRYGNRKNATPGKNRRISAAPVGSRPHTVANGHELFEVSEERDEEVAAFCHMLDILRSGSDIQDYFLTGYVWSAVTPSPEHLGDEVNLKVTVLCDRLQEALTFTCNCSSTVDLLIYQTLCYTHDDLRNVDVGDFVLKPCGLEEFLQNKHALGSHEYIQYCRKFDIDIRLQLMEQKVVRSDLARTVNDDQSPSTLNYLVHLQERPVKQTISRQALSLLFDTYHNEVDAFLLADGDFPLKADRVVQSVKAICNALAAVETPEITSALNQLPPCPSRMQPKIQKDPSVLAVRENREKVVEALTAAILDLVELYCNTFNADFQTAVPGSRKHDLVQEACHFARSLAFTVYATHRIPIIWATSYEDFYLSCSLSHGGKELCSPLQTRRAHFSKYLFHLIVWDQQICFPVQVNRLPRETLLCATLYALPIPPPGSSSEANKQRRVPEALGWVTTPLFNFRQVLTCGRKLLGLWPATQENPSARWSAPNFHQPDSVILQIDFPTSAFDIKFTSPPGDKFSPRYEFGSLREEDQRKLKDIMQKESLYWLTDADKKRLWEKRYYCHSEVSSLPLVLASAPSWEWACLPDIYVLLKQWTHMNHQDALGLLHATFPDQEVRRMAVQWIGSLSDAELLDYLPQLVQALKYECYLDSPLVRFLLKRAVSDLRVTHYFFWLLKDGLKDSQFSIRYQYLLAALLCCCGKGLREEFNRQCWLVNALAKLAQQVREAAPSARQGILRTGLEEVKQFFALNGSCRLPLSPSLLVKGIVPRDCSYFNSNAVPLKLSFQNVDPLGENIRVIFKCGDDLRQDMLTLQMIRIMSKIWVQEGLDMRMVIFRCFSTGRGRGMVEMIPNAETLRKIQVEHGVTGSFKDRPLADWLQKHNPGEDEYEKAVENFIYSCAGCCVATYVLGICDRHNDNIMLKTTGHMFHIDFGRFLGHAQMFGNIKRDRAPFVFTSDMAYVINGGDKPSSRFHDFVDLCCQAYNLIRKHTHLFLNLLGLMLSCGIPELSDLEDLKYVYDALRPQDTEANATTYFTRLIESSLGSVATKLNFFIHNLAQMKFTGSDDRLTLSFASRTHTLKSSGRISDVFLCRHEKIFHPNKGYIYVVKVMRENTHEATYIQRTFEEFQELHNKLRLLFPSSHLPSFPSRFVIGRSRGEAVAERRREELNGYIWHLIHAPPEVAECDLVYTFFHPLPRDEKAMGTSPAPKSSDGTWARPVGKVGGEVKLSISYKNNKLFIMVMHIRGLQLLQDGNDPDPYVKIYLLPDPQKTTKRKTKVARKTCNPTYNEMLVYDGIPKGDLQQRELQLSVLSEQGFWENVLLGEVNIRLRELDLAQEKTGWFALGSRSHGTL
T4 sequence (O02810 whole entry): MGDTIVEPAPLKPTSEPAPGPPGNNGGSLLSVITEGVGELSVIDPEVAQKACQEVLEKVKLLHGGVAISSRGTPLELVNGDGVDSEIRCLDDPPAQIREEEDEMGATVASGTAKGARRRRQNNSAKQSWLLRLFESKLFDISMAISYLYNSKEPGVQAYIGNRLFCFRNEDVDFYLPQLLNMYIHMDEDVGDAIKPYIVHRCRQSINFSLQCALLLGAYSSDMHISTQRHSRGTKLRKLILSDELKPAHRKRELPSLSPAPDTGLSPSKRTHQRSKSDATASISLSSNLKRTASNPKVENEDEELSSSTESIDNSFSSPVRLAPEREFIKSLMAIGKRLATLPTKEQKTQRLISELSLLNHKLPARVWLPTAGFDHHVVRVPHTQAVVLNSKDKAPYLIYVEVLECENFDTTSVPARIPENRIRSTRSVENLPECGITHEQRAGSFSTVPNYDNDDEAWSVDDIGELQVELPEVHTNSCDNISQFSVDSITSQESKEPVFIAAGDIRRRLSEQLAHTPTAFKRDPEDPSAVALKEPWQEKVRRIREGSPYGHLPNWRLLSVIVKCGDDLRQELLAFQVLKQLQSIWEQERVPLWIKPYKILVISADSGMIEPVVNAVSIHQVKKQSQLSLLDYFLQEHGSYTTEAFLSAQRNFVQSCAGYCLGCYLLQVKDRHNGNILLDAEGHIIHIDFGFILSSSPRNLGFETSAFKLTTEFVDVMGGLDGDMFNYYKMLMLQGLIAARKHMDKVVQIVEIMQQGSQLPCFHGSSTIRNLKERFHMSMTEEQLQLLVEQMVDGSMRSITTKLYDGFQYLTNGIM

## COc1ccc(-c2sc(NC(=O)C3CCCC3)nc2C)cc1S(=O)(=O)Nc1ccc(O)cc1 [PT423]
[1]
  Selection of resistance: resistance was not able to be selected

## COc1ccc(-c2sc(NC(=O)CC3CCOCC3)nc2C)cc1S(=O)(=O)Nc1ccc(O)cc1 [Compound S-227, N-[5-[3-[(4-hydroxyphenyl)sulfamoyl]-4-methoxy-phenyl]-4-methyl-thiazol-2-yl]-2-tetrahydropyran-4-yl-acetamide]
[2]
  EC50: < 0.001 µM
[3]
  EC50: 0.001 to 0.1 µM
[4]
  EC50: 0.001 to 0.1 µM
[5]
  EC50: 0.1 to 1 µM
[6]
  IC50: > 10 µM
[7]
  IC50: > 10 µM
[8]
  EC50: 0.1 to 1 µM

## COc1ccc(-c2sc(NC3CCCCCC3)nc2C)cc1S(=O)(=O)Nc1c(C)cccc1C [Compound S-98, 5-[2-(cycloheptylamino)-4-methyl-thiazol-5-yl]-N-(2,6-dimethylphenyl)-2-methoxy-benzenesulfonamide; 2,2,2-trifluoroacetic acid]
[2]
  EC50: < 0.001 µM
[3]
  EC50: < 0.001 µM
[4]
  EC50: 1 to 10 µM
[5]
  EC50: 1 to 10 µM
[7]
  IC50: > 10 µM

## COc1ccc(-c2sc(NCCC3CCCCC3)nc2C)cc1S(=O)(=O)NC1CCC(O)C1 (centres unmarked) [Compound S-214, 5-[2-(2-cyclohexylethylamino)-4-methyl-thiazol-5-yl]-N-(3-hydroxycyclopentyl)-2-methoxy-benzenesulfonamide]
[9]
  IC50: > 10 µM
[10]
  IC50: > 10 µM
[11]
  IC50: 0.1 to 1 µM
[7]
  IC50: > 10 µM

## COc1ccc(-c2sc(NCC3CCCCC3)nc2C)cc1S(=O)(=O)Nc1cccc(C(C)(C)C)c1 [Compound S-32, N-(3-tert-butylphenyl)-5-[2-(cyclohexylmethylamino)-4-methyl-thiazol-5-yl]-2-methoxy-benzenesulfonamide; 2,2,2-trifluoroacetic acid]
[3]
  EC50: < 0.001 µM
[4]
  EC50: 1 to 10 µM
[8]
  EC50: 1 to 10 µM
